Results published in patent US20200009118A1, “COMPOSITIONS AND METHODS FOR THE TREATMENTOF NEURODEGENERATIVE AND OTHER DISEASES” (Glialogix, Inc., priority 2017, published 2020).
Blank lines part the entries; values can stand above or below the molecule they belong to.

Columns and labels:
[1] = system: xCT mRNA in primary rat microglial cells; experiment: qPCR of xCT mRNA in primary microglia; format: cell-based; settings: control gene gamma-actin
Protocol: (§1) Following 24 hours, cells were then mixed and aliquoted in to 96 wells at 7,000-20,000 cells per well in fresh media, either complete media (microglia) or minimal media (100 mL Neurobasal Media (#12348-017, Life Tech) supplemented with 1 mL N2 supplement (#17502-048, Life Tech) and 0.5 mM GlutaMax (#35050-061, Life Tech). Compounds to be tested were then added at the indicated concentrations and cells harvested 18 hours later by centrifugation at 2000×g, 5 minutes at 4° C. mRNA was isolated from the cells by use of the Purelink microscale RNA extraction kit (Catalog #12183016, Life Technologies) kit and the mRNA resuspended in 12-22 μl of RNase-free water according to the manufacturer's instructions. cDNA was prepared by use of the Superscript VILO kit (Catalog #11755050, Life Technologies) according to the manufacturer's instructions. The cDNA was eluted in a final volume of 20 μl RNase-free water and 4 μl was used for each qPCR reaction. For the real-time qPCR reactions, primers and reagents were supplied by Life Technologies and used according to the manufacturer's instructions. The detection molecule was the TaqMan probe with FAM dye label on 5′ end that binds to non-labeled primer pairs. The qPCR machine was a model 7500 Fast Real Time machine from ABI and used according to the manufacturer's instructions. 4 μl of the cDNA reaction was used for each qPCR reactions in a final volume of 20 μl. […] mRNA levels were quantitated by measuring the Cycle threshold (Ct) for each qPCR reaction using the standard algorithm supplied with the ABI 7500 Fast qPCR machine without modification. The Ct is defined as the number of cycles required for the fluorescent signal to cross the threshold (e.g. exceeds background level). […] The Cycle threshold is abbreviated Ct. The change in Ct equals [Ct (minus test agent)−Ct (plus test agent)]. Changes in Ct of the test genes xCT and IL1-beta are normalized by subtracting the change in Ct of the control gene, either gamma-actin or Hypoxanthine-guanine phosphoribosyl transferase (HPRT). […] Using the methods described in Example 11, various agents reported to cause activation of neuroinflammatory cells and/or known to cause or reflect damage to neurons, axons and/or oligodendrocytes were tested for their effect on xCT levels in primary rat microglia.

[2] = system: IL1-beta mRNA in primary rat microglial cells; experiment: qPCR of IL1-beta mRNA in primary microglia; format: cell-based; settings: control gene gamma-actin
Protocol: as §1

[3] = system: xCT mRNA in primary rat astrocyte cells; experiment: qPCR of xCT mRNA in primary astrocytes; format: cell-based; settings: astrocyte media, control gene gamma-actin
Protocol: (§2) Primary rat astrocyte cells were purchased from All Cells (Catalog #RCTX-001F, Alameda, Calif.), thawed and resuspended in 13.4 ml of DMEM media (Catalog #12-614F, Lonza, Allendale, N.J.) supplemented with 15% v/v FBS (Catalog #F4135, Sigma-Aldrich, St. Louis, Mo.) and 560 μL aliquoted into wells in a 24-well plate. Cells were incubated at 37° C. with 5% CO2. For each qPCR experiment, 2-3 wells (approximately 42,000-63,000 cells) were transferred to a new 24-well plate with fresh astrocyte media, composed of 50% v/v DMEM, 50% v/v Neurobasal media (Catalog #12348-017), Life Technologies, supplemented with 2 mM glutamine, 300 μM L-cystine. Following 24 hours, cells were then mixed and aliquoted into 24 well plates at approximately 10,000 cells per well in the same media. Compounds to be tested were then added at the indicated concentrations and cells harvested 18 hours later by washing once with PBS (Catalog #P5493, Sigma-Aldrich) and then treated with 300 μl of StemProAccutase cell dissociation reagent (Catalog #A11105-01, Life Technologies) and incubated for 5-10 minutes at 37° C. PBS (300 μl) was added and the cells spun down in a microfuge for 5 minutes at 2,000×g at 4° C. The supernatant was removed and mRNA was isolated from the cells by using the Purelink microscale RNA extraction kit (Catalog #12183016, Life Technologies) according to the manufacturer's instructions. The mRNA resuspended in 12-22 μl of RNase-free water. cDNA was prepared by use of the Superscript VILO kit (Catalog #11755050, Life Technologies) according to the manufacturer's instructions. The cDNA was eluted in a final volume of 20 μl RNase-free water in and 4 μl was used for each qPCR reaction. qPCR reactions and primers were as described in Example 11.
(§3) To determine if tunicamycin increased levels of xCT mRNA, Tunicamycin (5 ng/ml) was added to the primary astrocyte cell cultures in astrocyte media. xCT gene expression was determined by qPCR after 18 hours of exposure to tunicamycin.
(§4) The Cycle threshold is abbreviated Ct. The change in Ct equals [Ct (minus test agent)−Ct (plus test agent)]. Changes in Ct of the test genes xCT and Lcn-2 are normalized by subtracting the change in Ct of the control gene, either gamma-actin or Hypoxanthine-guanine phosphoribosyl transferase (HPRT). Ct values are converted to absolute values by the formula: absolute value=2^^(normalized change in Ct). Absolute values are converted to percent change by multiplying the absolute value by 100.
(§5) Using the methods described in Example 11, various agents known to cause activation of neuroinflammatory cells and/or cause or reflect stress and damage to neurons, axons and/or oligodendrocytes were tested for causing an increase in xCT levels in primary rat astrocytes.

[4] = system: Lcn-2 mRNA in primary rat astrocyte cells; experiment: qPCR of Lcn-2 mRNA in primary astrocytes; format: cell-based; settings: astrocyte media, control gene gamma-actin
Protocol: as §2, §3, §4, §5

[5] = system: SOD1^G93A transgenic mice; settings: cited from earlier work
[6] = for Cmax GB: pH 2; for AUC / Cmax IB: pH 5.5
[7] = target: T1, xCT (Rattus norvegicus, UniProt A0A8I6AB70); experiment: Extracellular glutamate from primary astrocytes (Amplex Red Glutamic Acid/Glutamate Oxidase Assay); format: cell-based; settings: TNF-alpha 100 μg/ml 18 hours in astrocyte media, no sulfasalazine
T1 construct: host or cells: primary rat astrocytes
Text: xCT is a cystine-glutamate exchange protein that imports extracellular cystine in exchange for exporting intracellular glutamate. xCT activity can be measured by measuring the level of the extracellular glutamate that is exported. For detection of extracellular glutamate, the Amplex Red Glutamic Acid/Glutamate Oxidase Assay Kit from Life Technologies (Catalog #A-1222, Grand Island, N.Y.) was used following the manufacturer's instructions. Fluorescence from the Amplex Red fluorophore is directly proportional to glutamate concentration and was detected on an Enspire plate reader (Perkin-Elmer (Model #2300, Santa Clara, Calif.) with excitation wavelength at 530 nm and detection wavelength at 590 nm according to the manufacturer's instructions.
Astrocytes were grown in 24-well microtiter plates at a density of approximately 10,000 cells/well in a total volume of 400 μl of astrocyte media. Cells were incubated 18 hours in either astrocyte media plus 100 μM cystine (Catalog #C8755; Sigma-Aldrich) or astrocyte media plus 100 μM cystine plus TNF-alpha (100 μg/ml). After 18 hours, the media was removed and the adherent astrocytes washed twice with PBS and then 400 μL of minimal media was added to the cells. The minimal media was EBSS (catalog #E3024, Sigma-Aldrich) supplemented with 100 μM cystine and 10 mM D-glucose (catalog #G8769, Sigma-Aldrich).
The top 25 μL of the supernatant was then transferred to a 0.5 ml microfuge tube and the aliquots frozen at −80.
For the glutamate assay, samples of the media were thawed, pipetted up and down to ensure mixing and 20 μl added to 80 μl of the Amplex Red assay mix in a 96-well microtiter plate (catalog #M4436, Greiner, Frickenhausen, Germany). The reactions were covered in aluminum foil and allowed to proceed for 30 minutes at 37° C. and then fluorescence measured as described above.
Concurrently with analysis of the astrocyte samples, a standard curve of the Amplex Red glutamate assay in the minimal media was prepared following the manufacturer's instructions and using known concentrations of glutamate: 0, 0.5, 1, 2 and 4 μM. Table 19 gives the numerical results of the standard curve assay and the results are depicted graphically in FIG. 17.

[8] = cited from earlier work
[9] = 100 ng/ml, complete media, 18 hours
[10] = 100 ng/ml, minimal media, 18 hours
[11] = published results in the SOD1 mouse model

T1 sequence (A0A8I6AB70 1-502): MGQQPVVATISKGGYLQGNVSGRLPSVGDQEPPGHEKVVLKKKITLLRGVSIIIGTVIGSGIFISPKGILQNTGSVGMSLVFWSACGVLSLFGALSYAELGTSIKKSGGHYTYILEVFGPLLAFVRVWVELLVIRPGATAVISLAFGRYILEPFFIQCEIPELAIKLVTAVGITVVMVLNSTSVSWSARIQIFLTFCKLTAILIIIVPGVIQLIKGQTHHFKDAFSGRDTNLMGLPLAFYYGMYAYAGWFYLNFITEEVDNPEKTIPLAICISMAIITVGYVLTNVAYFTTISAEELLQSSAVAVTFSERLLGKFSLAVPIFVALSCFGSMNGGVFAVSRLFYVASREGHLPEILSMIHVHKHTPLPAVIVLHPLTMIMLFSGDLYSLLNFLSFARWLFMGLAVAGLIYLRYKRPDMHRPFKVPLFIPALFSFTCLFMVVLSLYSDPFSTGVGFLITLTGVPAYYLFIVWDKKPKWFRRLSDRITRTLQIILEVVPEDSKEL
T1 sequence (Q794F9 whole entry partner): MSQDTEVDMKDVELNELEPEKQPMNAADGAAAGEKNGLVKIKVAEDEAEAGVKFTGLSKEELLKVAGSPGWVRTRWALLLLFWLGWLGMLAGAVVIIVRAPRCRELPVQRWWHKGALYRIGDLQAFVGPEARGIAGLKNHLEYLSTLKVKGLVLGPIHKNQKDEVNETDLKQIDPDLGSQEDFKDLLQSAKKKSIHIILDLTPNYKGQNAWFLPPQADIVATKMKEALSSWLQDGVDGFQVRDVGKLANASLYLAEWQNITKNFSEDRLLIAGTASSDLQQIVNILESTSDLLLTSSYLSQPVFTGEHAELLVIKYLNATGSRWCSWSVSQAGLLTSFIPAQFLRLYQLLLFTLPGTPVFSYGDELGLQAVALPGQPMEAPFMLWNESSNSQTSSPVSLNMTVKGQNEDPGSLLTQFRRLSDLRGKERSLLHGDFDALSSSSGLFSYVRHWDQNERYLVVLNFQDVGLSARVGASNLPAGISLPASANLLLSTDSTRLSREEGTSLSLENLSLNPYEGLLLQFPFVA

Molecule: Poly I/C
xCT, Change in Ct normalized to control gene [1, 9]: 6.186 | xCT, Fold (absolute) change normalized [1, 9]: 72.8 | xCT, Percent change normalized [1, 9]: 7,281% | xCT, Change in Ct normalized to control gene [1, 10]: 3.619 | xCT, Fold (absolute) change normalized [1, 10]: 12.3 | xCT, Percent change normalized [1, 10]: 1229% | IL1-beta, Percent change normalized [2, 9]: 1,900% | IL1-beta, Percent change normalized [2, 10]: 1,099% | xCT, Change in Ct normalized to control gene ([3]; 10 ug/ml): 1.471 | xCT, Fold change normalized ([3]; 10 ug/ml): 2.77 | xCT, Percent change normalized ([3]; 10 ug/ml): 277% | Lcn-2, Percent change normalized ([4]; 10 ug/ml): 76%

Molecule: IL-17A: inflammatory cytokine
xCT, Change in Ct normalized to control gene ([1]; 10 ng/ml, complete media): 1.652 | xCT, Fold change normalized ([1]; 10 ng/ml, complete media): 3.1 | xCT, Percent change normalized ([1]; 10 ng/ml, complete media): 314% | xCT, Change in Ct normalized to control gene ([3]; 100 ng/ml): 0.351 | xCT, Fold change normalized ([3]; 100 ng/ml): 1.28 | xCT, Percent change normalized ([3]; 100 ng/ml): 128% | Lcn-2, Percent change normalized ([4]; 100 ng/ml): 123%

Molecule: Nc1nc2ccc(OC(F)(F)F)cc2s1 [riluzole]
increased lifespan after onset of neurological disease [5, 11]: 1% | increased absolute lifespan ([5]; same SOD1 model under similar conditions, Lincecum et al.): 1.6%

Molecule: O=C(O)c1cc(/N=N/c2ccc(S(=O)(=O)Nc3ccccn3)cc2)ccc1O [Amorphous sulfasalazine, sulfasalazine]
Cmax GB [6]: 154 µg/mL | AUC [6]: 30,300 min * ug/mL | Cmax IB [6]: 372 µg/mL

Calculated glutamate levels ([7]; 30 minutes in minimal media): 2.88 µM | Fluorescence units ([7]; 30 minutes in minimal media): 13398 | Calculated glutamate levels ([7]; 120 minutes in minimal media): 9.05 µM | Fluorescence units ([7]; 120 minutes in minimal media): 34307 | Calculated glutamate levels ([7]; 240 minutes in minimal media): 13.82 µM | Fluorescence units ([7]; 240 minutes in minimal media): 50468
Molecule: TNF-alpha
xCT, Change in Ct normalized to control gene [1, 9]: 3.214 | xCT, Fold (absolute) change normalized [1, 9]: 9.3 | xCT, Percent change normalized [1, 9]: 930% | IL1-beta, Percent change normalized [2, 9]: 3,000% | xCT, Change in Ct normalized to control gene ([3]; 100 ng/ml): 1.376 | xCT, Fold change normalized ([3]; 100 ng/ml): 2.60 | xCT, Percent change normalized ([3]; 100 ng/ml): 260% | Lcn-2, Percent change normalized ([4]; 100 ng/ml): 244%

Molecule: CC(C)Cc1ccc(C(C)C(=O)O)cc1 (stereo not drawn) [ibuprofen]
decreased lifespan after onset of neurological disease [5, 11]: 10%

Molecule: O=C(O)c1cc(/N=N/c2ccc(S(=O)(=O)Nc3ccccn3)cc2)ccc1O [Crystalline sulfasalazine, sulfasalazine]
Cmax GB [6]: 15 µg/mL | AUC [6]: 22,200 min * ug/mL | Cmax IB [6]: 282 µg/mL

Molecule: IL-6: inflammatory cytokine
xCT, Change in Ct normalized to control gene ([3]; 20 ng/ml): 0.366 | xCT, Fold change normalized ([3]; 20 ng/ml): 1.29 | xCT, Percent change normalized ([3]; 20 ng/ml): 129% | xCT, Change in Ct normalized to control gene ([3]; 100 ng/ml): 0.380 | xCT, Fold change normalized ([3]; 100 ng/ml): 1.30 | xCT, Percent change normalized ([3]; 100 ng/ml): 130% | Lcn-2, Percent change normalized ([4]; 20 ng/ml): 146% | Lcn-2, Percent change normalized ([4]; 100 ng/ml): 130%

Molecule: Nc1ccc(S(=O)(=O)Nc2ccccn2)cc1 [Sulfapyridine, sulfapyridine]
oral bioavailability (reaching the circulation following oral dosing) [8]: > 70%

Molecule: IFN-gamma: inflammatory cytokine
xCT, Change in Ct normalized to control gene ([1]; 30 ng/ml, complete media): 1.417 | xCT, Fold change normalized ([1]; 30 ng/ml, complete media): 2.7 | xCT, Percent change normalized ([1]; 30 ng/ml, complete media): 270% | xCT, Change in Ct normalized to control gene [1, 9]: 1.636 | xCT, Fold (absolute) change normalized [1, 9]: 3.1 | xCT, Percent change normalized [1, 9]: 311% | IL1-beta, Percent change normalized ([2]; 30 ng/ml, complete media): 2,043% | IL1-beta, Percent change normalized [2, 9]: 446%

B1: IL-4: anti-inflammatory cytokine, tested as a control (protein, UniProt P05112 25-153, looked up)
Interleukin-4: HKCDITLQEIIKTLNSLTEQKTLCTELTVTDIFAASKNTTEKETFCRAATVLRQFYSHHEKDTRCLGATAQQFHRHKQLIRFLKRLDRNLWGLAGLNSCPVKEANQSTLENFLERLKTIMREKYSKCSS
xCT, Change in Ct normalized to control gene [1, 9]: −0.147 | xCT, Fold (absolute) change normalized [1, 9]: 0.9 | xCT, Percent change normalized [1, 9]: 90% | xCT, Change in Ct normalized to control gene ([3]; 100 ng/ml): −0.097 | xCT, Fold change normalized ([3]; 100 ng/ml): 0.93 | xCT, Percent change normalized ([3]; 100 ng/ml): 93% | Lcn-2, Percent change normalized ([4]; 100 ng/ml): 103%
